Measured values: patent publication US6914066B2, “1,2-annelated quinoline derivatives” (Janssen Pharmaceutica N.V., priority 1998, dated 2005)
Counter-ions that a name gives are not always drawn.

| Compound | melting point |
| --- | --- |
| Cn1cncc1C(OCCO)(c1ccc(Cl)cc1)c1ccc2c(c1)c(-c1cccc(Cl)c1)cc1nnnn12 (centres unmarked) (hydrate or solvate) [Comp 41] | 150 °C |
| Fc1ccc(C(c2ccc3c(c2)c(-c2ccccc2)cc2nccn23)n2ccnc2)cc1 (racemic) (hydrate or solvate) [Comp 3, (±)-7-[(4fluorophenyl)(1H-imidazol-1-yl)methyl]-5-phenylimidazo[1,2-a]quinoline ethanedioate(2:3).hemihydrate] | 204.3 °C |
| O=c1[nH]nc2cc(-c3ccccc3)c3cc(C(c4ccc(Cl)cc4)n4ccnc4)ccc3n12 (racemic) (hydrate or solvate) [Comp 7, (±)-7-[(4-chlorophenyl)-1H-imidazol-1-ylmethyl]-5-phenyl[1,2,4]triazolo[4,3-a]quinolin-1(2H)-one ethanedioate(1:1).hemihydrate] | 198.3 °C |
| Cn1cncc1C(O)(c1ccc(Cl)cc1)c1ccc2c(c1)c(-c1cccc(Cl)c1)cc1cnnn12 (racemic) [Comp 26, (±)-5-(3-chlorophenyl)-α-(4-chlorophenyl)-α-(1-methyl-1H-imidazol-5-yl)-[1,2,3]triazolo[1,5-a]quinoline-7-methanol] | 222 °C |
| Cn1cncc1C(N)(c1ccc(Cl)cc1)c1ccc2c(c1)c(-c1cccc(Cl)c1)nc1nnnn12 (racemic) [Comp 32, (±)-5-(3-chlorophenyl)-α-(4-chlorophenyl)-α-(1-methyl-1H-imidazol-5-yl)tetrazolo[1,5-a]quinazoline-7-methanamine] | 159 °C |
| Cn1cncc1C(N)(c1ccc(Cl)cc1)c1ccc2c(c1)c(-c1cccc(Cl)c1)cc1nnnn12 (centres unmarked) [Comp 27] | 172 °C |
| Cn1cncc1C(N)(c1ccc(Cl)cc1)c1ccc2c(c1)c(-c1cccc(Cl)c1)cc1nnnn12 (centres unmarked) [Comp 28] | 180 °C |
| CNC(c1ccc(Cl)cc1)(c1ccc2c(c1)c(-c1cccc(Cl)c1)cc1nnnn12)c1cncn1C (centres unmarked) [Comp 48] | 167 °C |
| CNc1ncc(C(c2ccc(Cl)cc2)c2ccc3c(c2)c(-c2cccc(Cl)c2)cc2nnnn23)n1C (centres unmarked) [Comp 49] | 206 °C |
| Cn1cncc1C(N)(c1ccc(Cl)cc1)c1ccc2c(c1)c(-c1cccc(Cl)c1)c(C(N)=O)c1nnnn12 (centres unmarked) [Comp 77] | > 250 °C |
| Cn1cncc1C(c1ccc(Cl)cc1)c1ccc2c(c1)c(-c1cccc(Cl)c1)cc1nnnn12 (centres unmarked) [Comp 94] | 166 °C |
| CCOC(=O)c1cn2c(cc(-c3cccc(Cl)c3)c3cc(C(O)(c4ccc(Cl)cc4)c4cncn4C)ccc32)n1 (centres unmarked) [Comp 95] | 143 °C |
| Cn1cncc1C(NO)(c1ccc(Cl)cc1)c1ccc2c(c1)c(-c1cccc(Cl)c1)cc1cnnn12 (centres unmarked) [Comp 98] | 191 °C |
| CNCC(=O)NC(c1ccc(Cl)cc1)(c1ccc2c(c1)c(-c1cccc(Cl)c1)cc1nnnn12)c1cncn1C (centres unmarked) [Comp 121] | 224 °C |

Other lines, results leading:

| melting point | Compound |
| --- | --- |
| > 260 °C | Cn1cncc1C(O)(c1ccc(Cl)cc1)c1ccc2c(c1)c(-c1cccc(Cl)c1)c(C(=O)O)c1nnnn12 (centres unmarked) (as salt: hydrochloride) [Comp 53] |
| > 280 °C | Cn1cncc1C(O)(c1ccc(Cl)cc1)c1ccc2c(c1)c(-c1cccc(Cl)c1)c(CO)c1nnnn12 (centres unmarked) (as salt: hydrochloride) [Comp 82] |
| 139 °C | Cn1cncc1C(O)(c1ccc(Cl)cc1)c1ccc2c(c1)c(-c1cccc(Cl)c1)nc1nnnn12 (racemic) [Comp 29, (±)-5-(3-chlorophenyl)-α-(4-chlorophenyl)-α-(1-methyl-1H-imidazol-5-yl)tetrazolo[1,5-a]quinazoline-7-methanol] |
| 212 °C | Cn1cncc1C(O)(c1ccc(Cl)cc1)c1ccc2c(c1)C(c1cccc(Cl)c1)Nc1nnnn1-2 (racemic) [Comp 30, (±)5-(3-chlorophenyl)-α-(4-chlorophenyl)4,5-dihydro-α-(1-methyl-1H-imidazol-5-yl)tetrazolo[1,5-a]quinazoline-7-methanol] |
| 235 °C | CN1c2nnnn2-c2ccc(C(O)(c3ccc(Cl)cc3)c3cncn3C)cc2C1c1cccc(Cl)c1 (racemic) [Comp 33, (±)-5-(3-chlorophenyl)-α-(4-chlorophenyl)-4,5-dihydro-4methyl-α-(1-methyl-1H-imidazol-5-yl)tetrazolo[1,5-a]quinazoline-7-methanol] |
| > 250 °C | Cn1cncc1C(O)(c1ccc(Cl)cc1)c1ccc2c(c1)c(-c1cccc(Cl)c1)c(C(N)=O)c1nnnn12 (centres unmarked) [Comp 80] |
